Laboratory results published in article PMC12040169 (PLOS Biology, 2025).

Test: in vitro
Details: human, hela cells, % viability

SMILES	viability at 28.5 h, 10 µM [%]
CCc1c(CC)c(OC(=O)C(N)C(C)C)c2ccccc2c1OC (centres unmarked) [CBK016484C]	93.4
COc1nccnc1OC1CCN(CCCC#N)CC1 [CBK084255]	90
CC(=O)Nc1nc(OCCOc2ccccc2)cnc1-c1cnn(C)c1 [CBK145425]	92.6
O=C1CC(SCc2nc3ccccc3[nH]2)C(=O)N1c1cccc(Cl)c1 (centres unmarked) [CBK266731]	94.5
CC(C)[C@@H](CO)Nc1cncc(-c2cccc3ccccc23)n1 [CBK065566]	98.4
COc1ccc(-c2cc(C(F)(F)F)nc(SCC(=O)Nc3cccnc3)n2)cc1OC [CBK266148]	103
Cc1nc2ccc(C(=O)NC3CCN(Cc4ccccc4)CC3)cn2c1N(C)C(=O)c1cccs1 [CBK146529]	99.9
O=C(NCc1ccccc1)c1ccco1 [CBK086713]	118
CNC(=S)NCc1ccncc1 [CBK020033]	106
O=C(O)c1ccc(-c2ccc(/C=C/c3nc(O)c([N+](=O)[O-])c(=O)[nH]3)o2)cc1Cl [CBK267354]	88.1
COC(=O)Cn1c(=O)c2c(nc3oc(C(C)(C)C)cn32)n(C)c1=O [CBK306029]	84.5
O=C(NC(=S)Nc1cc(-c2nc3ccccc3[nH]2)ccc1Cl)c1ccccc1[N+](=O)[O-] [CBK268649]	93.7
CCCC(=O)N[C@@H](Cn1c(=O)oc2ccccc21)C(C)C [CBK284536]	91.2
CN1CCN(NC(=O)c2cc(-c3cccnc3)nc3ccc(Cl)cc23)CC1 [CBK267729]	110
O=C(Nc1cccc2cccnc12)c1cccc2ccccc12 [CBK261473]	72.7
O=C(Cc1ccc2c(c1)OCO2)Nc1nn(Cc2ccc(C(F)(F)F)cc2)c2ccccc12 [CBK048401]	115
Nc1ncc(-c2cccc(CO)c2)nc1NC1CCCCC1 [CBK063650]	101
O=C1N[C@@H](CC2CCCCC2)C(=O)N2CCN(C(=O)c3cccc(F)c3)C[C@H]12 [CBK289599]	115

SMILES	viability at 28.5 h, 10 µM [%]
O=C(CSc1ccccn1)Nc1cccc(Cl)c1Cl [CBK057679]	91.8
COc1ccc(-c2cc(Nc3ccc(OC)cc3OC)ncn2)cc1 [CBK090763]	46.7
O=C(/C=C/C=C/c1ccccc1)CC1(O)C(=O)N(Cc2cccc3ccccc23)c2ccccc21 (centres unmarked) [CBK264744]	93.6
Cc1[nH]c(=O)[nH]c(=O)c1CC(=O)N1CCCCC1CN1CCCCC1 (centres unmarked) [CBK286344]	98.8
Cc1nn(Cc2nnc(SCC(=O)C(C)(C)C)o2)c(C)c1Br [CBK005646]	92.1
c1ccc2cc(-c3cn4ccnc4c(N4CCN(c5ccncc5)CC4)n3)ccc2c1 [CBK066369]	89.2
COc1cccc(/C=N/NC(=O)CCN2CCN(C)CC2)c1O [CBK261499]	91.3
O=C(c1ccccc1)N1CCC(c2cc3ncccc3[nH]2)CC1 [CBK283385]	89.4
Cc1cc(NCCc2ccc(=O)[nH]c2)nc(-c2cc(F)c(F)cc2F)n1 [CBK144636C]	99.3
CCOc1ccc(C2=NN(C(=O)CCC(=O)O)C(c3ccc4nccnc4c3)C2)cc1 (centres unmarked) [CBK296703]	103
CCc1nnc(N/N=C/c2ccc(OCc3ccc(F)cc3Cl)c(OC)c2)n1N [CBK278173C]	87.1
CC(Cn1cccn1)NC(=O)N1CCN(Cc2ccc(F)cc2)CC1 (centres unmarked) [CBK306948]	88.9
O=C(NCCc1ccccc1)c1cc(-c2ccccc2Cl)[nH]n1 [CBK288113]	105
O=C(O)CCN1CCCCC1 [CBK012168C]	103
Cc1ccc(C(=O)Nc2cccc(OC(=O)c3cc(S(=O)(=O)N4CCCCC4)ccc3Cl)c2)cc1 [CBK261368]	97.8
Cc1ccc(S(=O)(=O)NC(C)C(=O)Nc2ccc(C)c(Cl)c2)cc1 (centres unmarked) [CBK266263]	98
CS(=O)(=O)c1ccc(-c2ccc(OC3CCN(C(=O)CCCc4ccc(F)cc4)CC3)nc2)cc1 [CBK155044]	94.8
